Reference: patent publication US10532105B2, “Formulations for improving the efficacy of hydrophobic drugs” (Peptinovo Biopharma, LLC, priority 2015, dated 2020)
Non-standard residues stand in square brackets, D forms with d. No end group written: not given here. Aib = CC(C)(N)C(=O)O

Assays:
[1] = Stability of peptide/phospholipid complexes by visual inspection; format: physicochemical; conditions: SM, PC/SM 70/30
Description: Separate stock solutions of peptide and phospholipids were prepared in a solvent mixture composed of 80% tert-butyl alcohol (TBA) and 20% water to obtain separate solutions of 10 mM peptide, 20 mM 1,2-dioleoyl-sn-glycero-3-phosphocholine (DOPC) or 20 mM 1-palmitoyl-2-oleoyl-phosphatidylcholine (POPC) and 20 mM egg SM. Aliquots of stock solution were combined to obtain a final solution containing 10 mole equivalents of peptide, 42 mole equivalents of phosphatidylcholine and 18 mole equivalents of SM. The solutions were combined in a 1.5 ml glass vial, frozen (−70° C.), and lyophilized at −5 to −10° C. overnight. The resultant lyophilized cakes were rehydrated by addition of Dulbeco's phosphate buffered saline followed by gentle swirling of the contents. Formation of PALM was completed by incubating the PALM solution at 50° C. for 10 minutes. […] The qualities of the PALM preparations were evident in their appearance. A visually clear preparation indicated any nanoparticles that had formed were less than approximately 20 nm diameter.

[2] = tested on: BHK(SR-BI) cells; assay: DiI uptake from PALM or HDL by BHK(SR-BI) cells, SR-BI un-induced or induced; format: cell-based, hamster; conditions: for Increase Over Un-induced: DiI uptake, induced vs un-induced cells; for Induced DiI Uptake: SR-BI induced (10 nM mifepristone) BHK(SR-BI) cells; for Induced DiI Uptake / Un-induced DiI Uptake: 4 hours, mean ± SEM, n = 4; for Un-induced DiI Uptake: un-induced BHK(SR-BI) cells, relative to protein (HDL) or peptide (PALM) concentration
Description: SR-BI interaction studies are done with BHK(SR-BI) cells obtained from the NIH. The cells were stably transfected with an inducible human SR-BI gene by means of the GeneSwitch™ System (Invitrogen). The cells were plated (96-well plate) (8000 cells/well) in growth medium (Dulbeco's modified Eagle medium containing 10% fetal bovine serum) containing 200 ug/ml each of zeocin and hygromycin. After 24 hours incubation, the growth medium was removed and replaced with 0.2% bovine serum albumin in Dulbeco's modified Eagle medium. The medium of cells to be induced for SR-BI expression also contained 10 nM mifepristone, added from a DMSO stock solution. DMSO alone was added to the medium of uninduced cells. The induction medium was removed after 24 hours and replaced with medium containing DiI-labeled PALM (32 μg peptide/ml) or DiI-labeled HDL (19 μg protein/ml) (Kalen Biomedical, Montgomery Village, Md.). The test media were prepared by diluting an aliquot of Di-I-labeled PALM (Example 5) or the DiI-labeled HDL in 0.2% bovine serum albumin in Dulbeco's modified Eagle medium. The solutions were passed through 0.2 μm pore size, polyethersulfone, sterilization filters before use. The cells were incubated for 4 hours. Next, the cells were washed 3 times with 0.1% albumin in Dulbeco's phosphate buffered saline (with calcium and magnesium). The last wash was replaced with 200 ul/well of t-butanol/water (95%/5%). The covered plate was left to stand at ROOM TEMPERATURE for 30 min with occasional shaking. The fluorescence in each well was detected at 520 nm excitation and 580 nm emission with a 550 nm cutoff filter on a Molecular Dynamics Gemini fluorescence plate reader (FIG. 9).

Substance	Stability by visual inspection (appearance) ([1]; DOPC, C16PTX/PL mole ratio 0)	Stability by visual inspection (appearance) ([1]; POPC, C16PTX/PL mole ratio 0)	Stability by visual inspection (appearance) ([1]; POPC, C16PTX/PL mole ratio 0.1)	Increase Over Un-induced [2] [%]	Induced DiI Uptake [2] [pmol/µg/mL]	Un-induced DiI Uptake [2] [pmol/µg/mL]	Stability by visual inspection (appearance) ([1]; DOPC, C16PTX/PL mole ratio 0.1)
DV{AIB}QKLFELFNQLLEKWKQV (DV[Aib]QKLFELFNQLLEKWKQV) [SEQ ID NO: 27]	Turbid	Clear	Turbid	90	0.66 ± 0.02	0.34 ± 0.01	–
DVFQKLVELFNQLLEKWKQV [SEQ ID NO: 26]	–	Clear	Turbid	65	0.81 ± 0.04	0.49 ± 0.04	–
DVFQ{AIB}LKELLNQLLEKFKQV (DVFQ[Aib]LKELLNQLLEKFKQV) [SEQ ID NO: 5]	–	–	–	73	0.93 ± 0.03	0.54 ± 0.03	–
DV{AIB}QKFLELFNQLLEKWKQV (DV[Aib]QKFLELFNQLLEKWKQV) [SEQ ID NO: 32]	Turbid	Clear	Turbid	221	0.90 ± 0.03	0.28 ± 0.02	Turbid
DVFQ{AIB}LKELFNQLLEKWKQV (DVFQ[Aib]LKELFNQLLEKWKQV) [SEQ ID NO: 3]	–	–	–	88	0.29 ± 0.03	0.16 ± 0.01	–
DVFQKL{AIB}ELFNQL{AIB}EKWKQV (DVFQKL[Aib]ELFNQL[Aib]EKWKQV) [SEQ ID NO: 35]	–	–	–	264	1.26 ± 0.06	0.35 ± 0.01	–
DVFQKL{AIB}ELFNQLLEKWKQV (DVFQKL[Aib]ELFNQLLEKWKQV) [SEQ ID NO: 25]	Clear	Clear	Clear	245	0.83 ± 0.02	0.24 ± 0.01	Clear
